“And” between values parts separate entries of the source, which are not always exact repeats. Equal values may be shown once.
Experiments:
[1] = tested on: MDA-MB231 human breast cancer cells; assay: Clonogenic cell survival, MDA-MB231; format: cell-based; conditions: for clonogenic cell killing: 100 μM BSO, 1 μM DTPP 24 h, 500 nM AUR 15 min (FIG. 1B)
Protocol: FIGS. 1A-D: BSO, DTPP and AUR treated SUM159, MDA-MB231 and HMEC Clonogenic survival. In Panel A (SUM 159), B (MDA-MB231) and C(HMEC), 150,000 cells/dish SUM159 or MDA-MB231 and 300,000 cells/dish were plated in 60 mm tissue culture dishes. After 48 hours, cells were given fresh complete HMECs media and treated with 100 μM BSO+/1 μM DTPP for 24 hours. 500 nM AUR were added 15 mins before the trypsinization of cells for clonogenic survival assay. In panel A-C, The error bars represent mean±1 SD of n=1 treatment dishes done in 3 separate experiments where each treatment dish was used to prepare 6-10 replicate cloning dishes for analysis. *p<0.001 as compared to Control. […] Mice growing Sum159 xenograft tumors were treated with 100 μM DTPP in drinking water for 2 weeks followed by i.p. injections of BSO 675 mg/kg followed in 2 hrs with Au 2.7 mg/kg. The day following injections tumors were harvested, digested and stained for ALDH positive cells. Each bar represents an average of at least three tumors. Error bars are SEM. *p<0.05 vs. control.
FIGS. 3A-3B: Clonogenic survival of SUM159 and MDA-MB231 cells treated with BSO, DTPP and AUR in the presence of 20 mM NAC. Asynchronously growing cultures of SUM159 (panel A) and MDA-MB231 (panel B) were plated as described in FIG. 1. After 48 hours, cells were given fresh complete HMECs media and treated with 100 μM BSO+/1 μM DTPP in the presence or absence of 20 mM NAC for 24 hours. 500 nM AUR were added 15 mins before the trypsinization. cells were then collected and plated for clonogenic survival. In panel A, B, The error bars represent mean±1SD of n=1 treatment dishes done in 3 separate experiments where each treatment dish was used to prepare 6-10 replicate cloning dishes for analysis. *p<0.001 as compared to W/O NAC Control. ^p<0.001 as compared to W/NAC Control.
Clonogenic cell survival: To determine whether the DTPP exposure alters the cell proliferation in MDA-MB231, SUM159 and HMECs, 150,000 cells/dish of MDA-MB231 and SUM159 cells, and 300,000 cells/dish HMECs were plated in 60 mm tissue culture dishes. After 48 hours, at 24 hours prior to each clonogenic survival experiment, media in all the dishes were changed to HMECs media and then treated with 100 μM BSO and 1 μM DTPP for 24 h. Cells were treated with AUR for 15 minutes prior to each clonogenic survival experiment. Attached and floating cells in the experimental dishes were collected after trypsinization with 1× trypsin-EDTA (CellGro, Herndon, Va., USA), centrifuged, resuspended in fresh media, and counted using a Coulter counter. Cells were re-plated using appropriate dilutions in their own media and clones were allowed to grow for 14 days in their regular growth media in the presence of 0.1% gentamycin. Cells were then fixed with 70% ethanol and stained with Coomassie blue and colonies of more than 50 cells counted and utilized to calculate clonogenic survival as described (Puck, T. T.; Morkovin, D.; Marcus, P. I.; Cieciura, S. J. Action of x-rays on mammalian cells. II. Survival curves of cells from normal human tissues. J Exp Med 106:485-500; 1957; Spitz, D. R.; Malcolm, R. R.; Roberts, R. J. Cytotoxicity and metabolism of 4-hydroxy-2-nonenal and 2-nonenal in H2O2-resistant cell lines. Do aldehydic by-products of lipid peroxidation contribute to oxidative stress? Biochem J 267:453-459; 1990). […]

[2] = tested on: thioredoxin reductase (TRR); assay: Thioredoxin reductase activity assay in treated SUM159 cells; format: cell-based, human; conditions: for TRR activity: control 135
Protocol: FIG. 8: Intracellular thioredoxin reductase (TRR) activity measured in BSO, DTPP, and AUR exposed SUM159 cells. Asynchronously growing cultures of SUM159 were plated and treated as described in FIG. 1. Cells were harvested and scraped in PBS at 4° C. Whole cell homogenates were used for biochemical analysis of thioredoxin reductase activity. Errors represent Mean±1 SD of 4 samples from two separate experiments (n=4). *p<0.001 as compared to Control.
Thioredoxin Reductase Assay: Thioredoxin Reductase activity was measured by using Thioredoxin Reductase Assay Kit purchased from Sigma (St Louis, Mo.). 400,000 cells/100 mm dishes of SUM159 cells were plated and treated with BSO, DTPP and AUR as described above. When cells were grown to 70-80% confluency on 100 mm dishes and scraped in PBS at 4° C., centrifuged, and the cell pellets were frozen at −20° C. until analysis. The assay was performed according to manufacturer's instructions. Briefly, working buffer containing 100 mM KPO4, pH 7.0, 10 mM EDTA, and 0.24 mM NADPH was prepared, and samples were added with working buffer along with 5,5′-dithiobis-(2-nitrobenzoic acid) (Eliman's reagent, DTNB). The rate of DTNB's reduction to 2-nitro-5-thiobenzoate (TNB) was then measured spectrophotometrically at […]. For each sample, this reaction was replicated, in tandem, with the sample in the presence of an inhibitor to thioredoxin reductase (TrxR), included with the kit. The difference between the sample rate with and without the TrxR inhibitor was taken to be the difference caused by TrxR activity in the sample. Each sample was then normalized to protein, by using the Lowry protein assay, as described previously (Lowry, O. H.; Rosebrough, N.J.; Farr, A. L.; Randall, R. J. Protein measurement with the Folin phenol reagent. J Biol Chem 193:265-275; 1951). The thioredoxin reductase activity of each sample was then normalized as a percentage of that of the control cells.

CC[PH](CC)(CC)[Au][S][C@@H]1O[C@H](COC(C)=O)[C@@H](OC(C)=O)[C@H](OC(C)=O)[C@H]1OC(C)=O [AUR, S-triethylphosphinegold(I)-2,3,4,6-tetra-O-acetyl-1-thio-β-D-glucopyranoside]
clonogenic cell killing [1]: 50%-55% and 50% | TRR activity ([2]; 500 nM AUR 15 min): 10 mU/mg protein

CCCCS(=N)(=O)CCC(N)C(=O)O [BSO, L-buthionine-[S,R]-sulfoximine, reference compound]
cytotoxicity (clonogenic survival), in words ([1]; 100 μM BSO 24 h): did not cause significantly cytotoxicity | effect on TRR activity, in words [2]: not capable of altering the TRR activity

CCCCCCCCCC[P+](c1ccccc1)(c1ccccc1)c1ccccc1 [DTPP, Decyl-Triphenylphosphonium]
survival fraction (of control cells) in the presence of NAC ([1]; 1 μM DTPP with 20 mM NAC, 24 hrs): at least 70% | decrease in cell survival / survival fraction compared to control ([1]; 100 μM BSO and/or 1 μM DTPP for 24 hours): 70%-80% | clonogenic cell killing [1]: at least 70% | increase of TRR activity [2]: 2 fold | TRR activity ([2]; 1 μM DTPP 24 h): 311 mU/mg
